Reference: US20260265267A1, “NOVEL COMPOUNDS WITH MTORC2-INHIBITORY ACTIVITY AND USES THEREOF” (Aliad Biopharma, priority 2023, published 2026)

Legend:
[1] = test system: activated microglia in the brain of 5×FAD mice; assay: Anti-inflammatory effect in the brain of 5×FAD mice (IBA-1 antibody staining); format: in vivo; conditions: 5 mg/kg, 14 days
Experimental: In order to evaluate the efficacy of HN2210, HN2213, and HN2313 on Alzheimer's disease-related symptoms, specifically regarding 1) memory and cognitive impairment, 2) amyloid plaques, 3) neurofibrillary tangles (NFTs), and 4) brain inflammation, an in vivo efficacy assessment of HN2210, HN2213 and HN2313 was conducted using 5×FAD Alzheimer's disease model mice. The 5×FAD mice were purchased from Jackson Lab, USA (Cat #034840-JAX) and crossed once with C57bl6 mice to produce F1 heterozygous offspring (Het). The compound was administered via intraperitoneal injection to 6-month-old 5×FAD Het mice, followed by behavioral testing. The normal control mice, which were littermates of the 5×FAD Het mice, were aged to 6 months and received DMSO injection at the same volume.
In order to assess the anti-inflammatory effect of HN2210, HN2213, and HN2313 compounds in the brains of Alzheimer's disease model mice, the following test was conducted using 5×FAD-DMSO mice without compound treatment, 5×FAD mice treated with HN2210, HN2213, or HN2313 compounds, and normal mice as controls. Specifically, brain inflammation is mediated by the activation of microglia, which can be stained using the IBA-1 antibody. Therefore, inflammation in the hippocampus of 5×FAD mouse can be assessed using immunostaining with the IBA-1 antibody. Brain slices were double-stained with the IBA-1 antibody and DAPI to label nuclei, and the dentate gyrus region of the hippocampus was observed under a confocal scanning microscope.

[2] = biological target: T1, mTOR(CD) protein and mLST8 protein (Homo sapiens, UniProt P42345+Q9BVC4); assay: mTOR(CD)-mLST8 binding assay (co-precipitation, Western blot); conditions: read-out: inhibition of the binding between mTOR(CD) and mLST8 proteins
T1 construct: mTOR C-terminal domain (mTOR(CD), a.a. 2179-2549); made in house; host or cells: E. coli (mTOR(CD)); insect Sf9 cells (mLST8, used as a crude extract)
Experimental: mLST8 binds to the mTOR C-terminal domain (mTOR(CD), a.a. 2179-2549). After binding to mTOR, mLST8 interacts with mSin1 and Rictor to complete the formation of the mTORC2 complex, serving as a scaffold. In order to evaluate the inhibitory activity of the compounds synthesized in Examples 1 to 70 on the binding between mLST8 protein and mTOR(CD) protein, the following mTOR(CD)-mLST8 binding assay was performed. Four types of compounds: HN2210, HN2213, HN2221 and HN2313 were used as the experimental target compounds.
Specifically, mTOR(CD) protein was overexpressed in E. coli, labeled with biotin, and then partially purified. mLST8 protein was overexpressed in insect Sf9 cells to obtain mLST8 extract. mTOR(CD)-biotin and mLST8 extract were incubated at 4° C. to induce binding between mTOR(CD)-biotin and mLST8 proteins, and then the mTOR(CD)-biotin and mLST8 complex were co-precipitated using avidin-agarose beads. The relative amounts of precipitated mTOR(CD)-biotin and mLST8 proteins were measured by Western blot analysis, as shown in FIG. 4. Four types of compounds were added during the incubation process of the mTOR(CD)-biotin and mLST8 extract.

mTORC2 = mTORC2 inhibitory activity in primary cultured cerebral neurons (Akt Ser473 phosphorylation); format: cell-based, SD mice; conditions: for effect on Akt Ser473 phosphorylation / decrease in AKT Ser473 phosphorylation at 24 hours: 500 nM or 100 nM; for effect on Akt Ser473 phosphorylation / pSer473-AKT/AKT (% control): 24 hours
Experimental: Specifically, primary neural cells were cultured from the cerebral cortex of E16 embryos of SD mice with a gestational age 16-day (Orient Bio). The extracted brain was separated into the left and right hemispheres, the meninges were removed, and the brains were treated with trypsin in Ca^2+/Mg^2+-free HBSS solution.
The time-dependent changes in Akt Ser473 phosphorylation, Akt Thr308 phosphorylation, and LC3-II levels were measured by Western blot analysis.

LC3-II = LC3-II formation as indicator of autophagy in HeLa cells (Western blot); format: cell-based, human; conditions: 9 hours; for activity at 40 µM: Homo sapiens, read-out: LC3-II (% control)
Method in brief: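 HeLa cells were treated with compounds at 40 μM for 9 h, then lysed in RIPA buffer and analysed by Western blot with chemiluminescent detection. LC3-II signal normalized to pan-Akt and expressed as percent of the DMSO vehicle control.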

T1 sequence (P42345 2179-2549 limits assumed, species assumed): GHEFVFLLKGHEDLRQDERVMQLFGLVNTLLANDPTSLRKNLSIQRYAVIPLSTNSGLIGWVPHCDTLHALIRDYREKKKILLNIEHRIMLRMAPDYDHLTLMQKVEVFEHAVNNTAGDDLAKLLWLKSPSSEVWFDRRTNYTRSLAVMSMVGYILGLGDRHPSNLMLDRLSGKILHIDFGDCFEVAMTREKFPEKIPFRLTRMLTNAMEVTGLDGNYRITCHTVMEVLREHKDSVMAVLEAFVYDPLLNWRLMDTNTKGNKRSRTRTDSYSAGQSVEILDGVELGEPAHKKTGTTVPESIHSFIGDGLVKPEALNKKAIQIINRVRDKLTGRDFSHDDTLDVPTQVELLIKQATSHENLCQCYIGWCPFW
T1 sequence (Q9BVC4 whole entry, species assumed, the tested form may be a part): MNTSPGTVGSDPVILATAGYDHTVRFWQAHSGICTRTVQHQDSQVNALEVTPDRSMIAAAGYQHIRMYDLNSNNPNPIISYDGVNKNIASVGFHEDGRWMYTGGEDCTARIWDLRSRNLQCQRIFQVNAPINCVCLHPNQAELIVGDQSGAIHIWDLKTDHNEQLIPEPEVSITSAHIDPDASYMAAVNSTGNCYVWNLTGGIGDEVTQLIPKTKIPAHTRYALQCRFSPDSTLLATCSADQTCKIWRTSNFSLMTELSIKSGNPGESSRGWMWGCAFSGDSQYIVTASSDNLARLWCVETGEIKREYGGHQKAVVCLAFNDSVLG

O=C1c2cc(F)c(N3CCOCC3)cc2COc2cc3c(cc21)OCO3 [HN2210, 8-(morpholino)-9-fluoro[2]benzoxepino[3,4-f]-1,3-benzodioxol-11(6H)-one]
reduction of IBA-1 antibody signals in the dentate gyrus compared to the 5×FAD-DMSO group [1]: 50%
inhibition at 4 µM [2]: 24%
inhibition at 40 µM [2]: 36%
effect on Akt Ser473 phosphorylation (mTORC2): reduce Akt Ser473 phosphorylation
decrease in AKT Ser473 phosphorylation at 24 hours (mTORC2): 67%
pSer473-AKT/AKT (% control) (mTORC2; 500 nM): 33 % control
decrease in AKT Ser473 phosphorylation from 30 minutes to 6 hours (mTORC2; from 30 minutes to 6 hours): approximately 50%
increase in LC3-II (LC3-II; 40 μM): 22%
activity at 40 µM (LC3-II): 108%

O=C1c2cc(F)c(NCc3ccccc3)cc2COc2cc3c(cc21)OCO3 [HN2213, 8-(benzylamino)-9-fluoro[2]benzoxepino[3,4-f]-1,3-benzodioxol-11(6H)-one]
reduction of IBA-1 antibody signals in the dentate gyrus compared to the 5×FAD-DMSO group [1]: 24%
inhibition at 4 µM [2]: 19%
inhibition at 40 µM [2]: 30%
selectivity for mTORC2 over mTORC1 (mTORC2): selective mTORC2 inhibitors
effect on Akt Ser473 phosphorylation (mTORC2): reduce Akt Ser473 phosphorylation
decrease in AKT Ser473 phosphorylation at 24 hours (mTORC2): 62%
pSer473-AKT/AKT (% control) (mTORC2; 500 nM): 38 % control
decrease in LC3-II (LC3-II; 40 μM): 33%
activity at 40 µM (LC3-II): 67%

O=C1c2cc(F)c(NC3CCCC3)cc2COc2cc3c(cc21)OCO3 [HN2313, 8-(cyclopentylamino)-9-fluoro-[1,3]dioxolo[4′,5′:4,5]benzo[1,2-b]benzo[e]oxepin-11(6H)-one]
reduction of IBA-1 antibody signals in the dentate gyrus compared to the 5×FAD-DMSO group [1]: 50%
inhibition at 40 µM [2]: 34%
selectivity for mTORC2 over mTORC1 (mTORC2): selective mTORC2 inhibitors
pSer473-AKT/AKT (% control) (mTORC2; 100 nM): 34 % control
effect on Akt Ser473 phosphorylation (mTORC2): reduce Akt Ser473 phosphorylation
decrease in AKT Ser473 phosphorylation at 24 hours (mTORC2): 66%
AKT Ser473 phosphorylation from 1 to 12 hours (mTORC2; from 1 to 12 hours): increased AKT Ser473 phosphorylation significantly
increase in LC3-II (LC3-II; 40 μM): 62%
activity at 40 µM (LC3-II): 162%
